Assay results: patent publication US20160317676A1, “METHODS AND COMPOSITIONS FOR DELIVERY OF NUCLEIC ACIDS” (Tekmira Pharmaceuticals Corporation, priority 2009, published 2016)
“And” between values parts separate entries of the source, which are not always exact repeats. Equal entries are not always repeated.

Legend:
[1] = Determination of pKa of formulated lipids with the fluorescent probe TNS; settings: for Lipid B pKa (±0.2): Lipid B by itself, formulation 40:10:40:10
Method: The pKa values for the different ionizable cationic lipids were determined essentially as described (Eastman et al., 1992 Biochemistry 31:4262-4268, which is incorporated by reference in its entirety) using the fluorescent probe 2-(p-toluidino)-6-naphthalenesulfonic acid (TNS), which is non-fluorescent in water but becomes appreciably fluorescent when bound to membranes. Vesicles composed of cationic lipid/DSPC/CH/PEG-c-DOMG (40:10:40:10 mole ratio) were diluted to 0.1 mM in buffers (130 mM NaCl, 10 mM CH3COONH4, 10 mM MES, 10 mM HEPES) of various pH values ranging from 2 to 11. An aliquot of the TNS aqueous solution (1 μM final) was added to the diluted vesicles and after a 30 second equilibration period the fluorescent of the TNS-containing solution was measured at excitation and emission wavelengths of 321 nm and 445 nm, respectively. The pKa of the cationic lipid-containing vesicles was determined by plotting the measured fluorescence against the pH of the solutions and fitting the data to a Sigmodial curve using the commercial graphing program IgorPro.

Factor VII = experiment: In vivo mouse Factor VII silencing model (FVII siRNA in lipid formulations, serum FVII chromogenic assay); set-up: species or system C57Bl/6 mice; settings: for ED50: dose giving 50% reduction in plasma FVII vs control animals, i.v. tail vein, 24 h, FVII siRNA formulation; for Lipid A ED50: Lipid A by itself; for % residual FVII: 40% cationic lipid/10% DSPC/40% cholesterol/10% PEG-DMG, FIG. 4; for Lipid B ED50: Lipid B by itself
Method: C57BL/6 mice (Charles River Labs, MA) received either saline or siRNA in desired formulations via tail vein injection at a volume of 0.01 mL/g. At various time points post-administration, animals were anesthesized by isofluorane inhalation and blood was collected into serum separator tubes by retro orbital bleed. Serum levels of Factor VII protein were determined in samples using a chromogenic assay (Coaset Factor VII, DiaPharma Group, OH or Biophen FVII, Aniara Corporation, OH) according to manufacturer protocols. A standard curve was generated using serum collected from saline treated animals. In experiments where liver mRNA levels were assessed, at various time points post-administration, animals were sacrificed and livers were harvested and snap frozen in liquid nitrogen. Frozen liver tissue was ground into powder. Tissue lysates were prepared and liver mRNA levels of Factor VII and apoB were determined using a branched DNA assay (QuantiGene Assay, Panomics, CA).
Factor VII (FVII), a prominent protein in the coagulation cascade, is synthesized in the liver (hepatocytes) and secreted into the plasma. FVII levels in plasma can be determined by a simple, plate-based colorimetric assay. As such, FVII represents a convenient model for determining sirna-mediated downregulation of hepatocyte-derived proteins, as well as monitoring plasma concentrations and tissue distribution of the nucleic acid lipid particles and siRNA.
C57BL/6 mice (Charles River Labs, MA) received either saline or formulated siRNA via tail vein injection. At various time points after administration, serum samples were collected by retroorbital bleed. Serum levels of Factor VII protein were determined in samples using a chromogenic assay (Biophen FVII, Aniara Corporation, OH). To determine liver mRNA levels of Factor VII, animals were sacrificed and livers were harvested and snap frozen in liquid nitrogen. Tissue lysates were prepared from the frozen tissues and liver mRNA levels of Factor VII were quantified using a branched DNA assay (QuantiGene Assay, Panomics, CA).
FVII activity was evaluated in FVII siRNA-treated animals at 48 hours after intravenous (bolus) injection in C57BL/6 mice. FVII was measured using a commercially available kit for determining protein levels in serum or tissue, following the manufacturer's instructions at a microplate scale. FVII reduction was determined against untreated control mice, and the results were expressed as % Residual FVII. Two dose levels (0.05 and 0.005 mg/kg FVII siRNA) were used in the screen of each novel liposome composition.
Test formulations were initially assessed for their FVII knockdown in female 7-9 week old, 15-25 g, female C57B1/6 mice at 0.1, 0.3, 1.0 and 5.0 mg/kg with 3 mice per treatment group. All studies included animals receiving either phosphate-buffered saline (PBS, Control group) or a benchmark formulation. Formulations were diluted to the appropriate concentration in PBS immediately prior to testing. Mice were weighed and the appropriate dosing volumes calculated (10 μl/g body weight). Test and benchmark formulations as well as PBS (for Control animals) were administered intravenously via the lateral tail vein. Animals were anesthetised 24 h later with an intraperitoneal injection of Ketamine/Xylazine and 500-700 μl of blood was collected by cardiac puncture into serum separator tubes (BD Microtainer). Blood was centrifuged at 2,000×g for 10 min at 15° C. and serum was collected and stored at −70° C. until analysis. Serum samples were thawed at 37° C. for 30 min, diluted in PBS and aliquoted into 96-well assay plates. Factor VII levels were assessed using a chromogenic assay (Biophen FVII kit, Hyphen BioMed) according to manufacturer's instructions and absorbance measured in microplate reader equipped with a 405 nm wavelength filter. […]

[2] = TNS assay, vesicles cationic lipid/DSPC/CH/PEG-c-DOMG 40:10:40:10
[3] = probe 2-(p-toluidino)-6-naphthalenesulfonic acid (TNS), 1 µM final, pKa, TNS assay, vesicles cationic lipid/DSPC/CH/PEG-c-DOMG 40:10:40:10

SMILES	ED50 (Factor VII)	pKa [1, 3]	further results
CCCCC/C=C\C/C=C\CCCCCCCCC(CCCCCCCC/C=C\C/C=C\CCCCC)OC(=O)CCCNCC [DLin-M-C3-EA]	5.00 mg/kg		pKa [1, 2]: 7.62
CCCCC/C=C\C/C=C\C/C=C\CCCCCC(CCCCC/C=C\C/C=C\C/C=C\CCCCC)OC(=O)CCCN(C)C [DLen(γ)-M-C3-DMA]	0.08 mg/kg	6.3	
CCCCC/C=C\C/C=C\CCCCCCCCC1(CCCCCCCC/C=C\C/C=C\CCCCC)OCC(CCCCN(C)C)CO1 [DLin-K6S-C4-DMA]	4.00 mg/kg	7.61	
CCCCC/C=C\C/C=C\CCCCCCCCC1(CCCCCCCC/C=C\C/C=C\CCCCC)OCC(CN(C)C)CO1 [DLin-K6S-C1-DMA]	0.10 mg/kg	5.97	
CCCCC/C=C\C/C=C\CCCCCCCCC(CCCCCCCC/C=C\C/C=C\CCCCC)OC(=O)CCCN(C)CC [DLin-M-C3-MEA]	0.03 mg/kg		pKa [1, 2]: 6.21
CCCCC/C=C\C/C=C\CCCCCCCCOC(=O)C(CCN(C)C)C(=O)OCCCCCCCC/C=C\C/C=C\CCCCC [DLin-MAL-C2-DMA]	1.50 mg/kg	6.66	
CCCCC/C=C\C/C=C\CCCCCCCC1OC2(CCN(C)CC2)OC1CCCCCCC/C=C\C/C=C\CCCCC (stereo not shown) [ALNY-156]	<0.1 mg/kg		pKa [1, 2]: 6.08
CCCCC/C=C\C/C=C\CCCCCCCCC(CCCCCCCC/C=C\C/C=C\CCCCC)ON=C(C)CCN(C)C [ALNY-149]			pKa ([1]; probe 2-(p-toluidino)-6-naphthalenesulfonic acid (TNS), 1 µM final, Lipid A pKa (±0.2), Lipid A by itself, formulation 40:10:40:10 (cationic lipid:DSPC:cholesterol:PEG-DMG)): 6.05; Lipid A ED50 (Factor VII; formulation 40:10:40:10): 0.050 mg/kg
CCCCC/C=C\C/C=C\CCCCCCCCC(CCCCCCCC/C=C\C/C=C\CCCCC)CN(C)CCNC(=N)N [ALNY-139]	5.00 mg/kg	10	
CCCCC/C=C\C/C=C\CCCCCCCCC(CCCCCCCC/C=C\C/C=C\CCCCC)OC(=O)CCN(C)C [DLin-M-C2-DMA]	0.60 mg/kg and 0.6 mg/kg		Lipid A pKa (±0.2) ([1]; Lipid A by itself, formulation 40:10:40:10 (cationic lipid:DSPC:cholesterol:PEG-DMG)): 5.64; pKa [1, 2]: 5.64; % residual FVII (Factor VII; 0.05 mg/kg siRNA): about 90%; % residual FVII (Factor VII; 0.10 mg/kg siRNA): about 90%; Lipid A ED50 (Factor VII; formulation 40:10:40:10): 0.600 mg/kg
CCCCC/C=C\C/C=C\CCCCCCCCC1(CCCCCCCC/C=C\C/C=C\CCCCC)OCCC(CCN(C)C)O1 (stereo not shown) [DLin-K6A-C2-DMA]	0.25 mg/kg	6.73	
CCCCC/C=C\C/C=C\C/C=C\CCCCCC(CCCCC/C=C\C/C=C\C/C=C\CCCCC)OC(=O)CCCCN(C)C [DLen(γ)-M-C4-DMA]	0.50 mg/kg	6.75	
CCCCC/C=C\C/C=C\CCCCCCCCC1(CCCCCCCC/C=C\C/C=C\CCCCC)OCCC(CCCN(C)C)O1 (stereo not shown) [DLin-K6A-C3-DMA]	0.70 mg/kg	6.95	
CCCCC/C=C\C/C=C\CCCCCCCCC(CCCCCCCC/C=C\C/C=C\CCCCC)OC(=O)CCCNC [DLin-M-C3-MA]	5.00 mg/kg		
CCCCC/C=C\C/C=C\C/C=C\C/C=C\CCCCC1(CCCC/C=C\C/C=C\C/C=C\C/C=C\CCCCC)OCC(CCN(C)C)O1 (stereo not shown) [DAra-K5-C2-DMA]	0.52 mg/kg	6.26	
CCCCC/C=C\C/C=C\CCCCCCCCC(CCCCCCCC/C=C\C/C=C\CCCCC)CN(C)C [ALNY-181]	0.25 mg/kg		
CCCCC/C=C\C/C=C\CCCCCCCCC1(CCCCCCCC/C=C\C/C=C\CCCCC)OCC(NC(=N)N)O1 (stereo not shown) [ALNY-232]		10	
CCCCC/C=C\C/C=C\CCCCCCCCC1(CCCCCCCC/C=C\C/C=C\CCCCC)OCC(CCN(C)C)CO1 [DLin-K6S-C2-DMA]	3.00 mg/kg	7.25	

SMILES	ED50 (Factor VII)	pKa [1, 3]	further results
CCCCC/C=C\C/C=C\CCCCCCCCC(CCCCCCCC/C=C\C/C=C\CCCCC)OC(=O)C(CCN(C)C)C(=O)OC(CCCCCCCC/C=C\C/C=C\CCCCC)CCCCCCCC/C=C\C/C=C\CCCCC [TLin-MAL-C2-DMA]		3.93	
CCCCC/C=C\C/C=C\CCCCCCCCC(CCCCCCCC/C=C\C/C=C\CCCCC)OC(=O)CCCN(C(C)C)C(C)C [DLin-M-C3-DIPA]	4.50 mg/kg and 4.5 mg/kg		
CCCCC/C=C\C/C=C\CCCCCCCC(=O)OCC(CN(C)C)OC(=O)CCCCCCC/C=C\C/C=C\CCCCC (stereo not shown) [DLin-DAP-DMA]		5.67	
CCCCC/C=C\C/C=C\CCCCCCCCC(CCCCCCCC/C=C\C/C=C\CCCCC)OC(=O)CCCN(C)C [DLin-M-C3-DMA]	0.03 mg/kg		Lipid A ED50 (Factor VII; formulation 40:10:40:10): 0.030 mg/kg; Lipid A ED50 (Factor VII; formulation 50:10:38.5:1.5): 0.010 mg/kg; Lipid B ED50 (Factor VII; formulation 40:10:40:10): 0.030 mg/kg
CCCCC/C=C\C/C=C\CCCCCCCCC(CCCCCCCC/C=C\C/C=C\CCCCC)OC(=O)CCCCN(C)C [DLin-M-C4-DMA]	0.15 mg/kg		Lipid B pKa (±0.2) [1]: 6.93; pKa [1, 2]: 6.93; % residual FVII (Factor VII; 0.05 mg/kg siRNA): about 90%; % residual FVII (Factor VII; 0.10 mg/kg siRNA): about 90%; Lipid B ED50 (Factor VII; formulation 40:10:40:10): 0.150 mg/kg
CCCCC/C=C\C/C=C\CCCCCCCCC(CCCCCCC/C=C\C/C=C\CCCCC)OC(=O)CCC[N+](C)(C)C (stereo not shown) [DLin-M-C3-TMA]		> 1	Lipid B ED50 (Factor VII; formulation 40:10:40:10): >1.00 mg/kg
CCCCC/C=C\C/C=C\CCCCCCCCC1(CCCCCCCC/C=C\C/C=C\CCCCC)OC[C@@H](CCN(C)C)O1 [DLin-K-XTC2-DMA-(R)]	0.10 mg/kg	6.79	
CCCCC/C=C\C/C=C\CCCCCCCCC(CCCCCCCC/C=C\C/C=C\CCCCC)OC(=O)CCCCCN(C)C [DLin-M-C5-DMA]	0.65 mg/kg		
CCCCC/C=C\C/C=C\CCCCCCCCC1(CCCCCCCC/C=C\C/C=C\CCCCC)OCC(CCN(C)C)O1 (stereo not shown) [DLin-K5-C2-DMA]	0.10 mg/kg		pKa ([1]; probe 2-(p-toluidino)-6-naphthalenesulfonic acid (TNS), 1 µM final): 6.68
CCCCC/C=C\C/C=C\CCCCCCCCC1(CCCCCCCC/C=C\C/C=C\CCCCC)OC[C@H](CCN(C)C)O1 [DLin-K-XTC2-DMA-(S)]	0.10 mg/kg	6.65	
CC/C=C\C/C=C\C/C=C\CCCCCCCCC1(CCCCCCCC/C=C\C/C=C\C/C=C\CC)OCC(CCN(C)C)O1 (stereo not shown) [DLen-K5-C2-DMA]	0.05 mg/kg	6.59	
CCCCC/C=C\C/C=C\CCCCCCCCC1(CCCCCCCC/C=C\C/C=C\CCCCC)O[C@@H]2C3CC([C@H](N(C)C)C3)[C@@H]2O1 (stereo partly shown) [ALNY-171]	0.25 mg/kg	6.63	
CCCCC/C=C\C/C=C\CCCCCCCCC(CCCCCCCC/C=C\C/C=C\CCCCC)OC(=O)CCCN(CC)CC [DLin-M-C3-DEA]	0.30 mg/kg and 0.3 mg/kg		pKa [1, 2]: 6.17
CCCCC/C=C\C/C=C\CCCCCCCCC1(CCCCCCCC/C=C\C/C=C\CCCCC)OCC(CN(C)C)O1 (stereo not shown) [DLin-K-DMA (CDRD)]	0.40 mg/kg		pKa [1, 2]: 5.91
CC/C=C\C/C=C\C/C=C\C/C=C\C/C=C\C/C=C\CCCC1(CCC/C=C\C/C=C\C/C=C\C/C=C\C/C=C\C/C=C\CC)OCC(CCN(C)C)O1 (stereo not shown) [DDha-K5-C2-DMA]	0.20 mg/kg	6.09	
CCCCC/C=C\C/C=C\CCCCCCCCC1(CCCCCCCC/C=C\C/C=C\CCCCC)OCC(CN(C)C)O1 (stereo not shown) [DLin-K-DMA (Biofine)]	0.25 mg/kg	5.94	
CCCCCCCCCCC(O)CN(CCN1CCN(CCN(CC(O)CCCCCCCCCC)CC(O)CCCCCCCCCC)CC1)CCN(CC(O)CCCCCCCCCC)CC(O)CCCCCCCCCC (stereo not shown) [Compound C12-200, reference compound]			Lipid B pKa (±0.2) [1]: 6.47; Lipid B ED50 (Factor VII; formulation 40:10:40:10): 0.030 mg/kg
